pKi: −log10 of the molar value.
Experiments:
[1] = target: 5-hydroxytryptamine receptor 1A (Homo sapiens, UniProt P08908); assay: GPCRScan assay: inhibition of 5-HT1A; design: radioligand conc. used [nm] 0.5 – 1.0, parental cells stable CHO
[2] = target: T1, Histamine H2 receptor (Homo sapiens, UniProt P25021); conditions: Compound concentration 10.0 uM
[3] = target: Histamine H4 receptor (Homo sapiens) (UniProt Q9H3N8); conditions: Compound concentration 10.0 uM
[4] = target: Beta-2 adrenergic receptor (Homo sapiens) (UniProt P07550); conditions: Compound concentration 10.0 uM
[5] = target: Delta-type opioid receptor (Homo sapiens) (UniProt P41143); conditions: Compound concentration 10.0 uM
[6] = target: T2, 5-hydroxytryptamine receptor 7 (Homo sapiens, UniProt P34969); conditions: Compound concentration 10.0 uM
[7] = target: Beta-1 adrenergic receptor (Homo sapiens) (UniProt P08588); conditions: Compound concentration 10.0 uM
[8] = target: Histamine H1 receptor (Homo sapiens, UniProt P35367); assay: GPCRScan assay: inhibition of H1; design: radioligand conc. used [nm] 0.6 – 2.0, parental cells stable HEK
[9] = target: 5-hydroxytryptamine receptor 2B (Homo sapiens, UniProt P41595); assay: GPCRScan assay: inhibition of 5-HT2B; design: radioligand conc. used [nm] 1.0 – 2.0, parental cells stable HEK
[10] = target: D(2) dopamine receptor (Homo sapiens) (UniProt P14416); conditions: Compound concentration 10.0 uM
[11] = target: Alpha-1B adrenergic receptor (Homo sapiens) (UniProt P35368); conditions: Compound concentration 10.0 uM
[12] = target: D(1B) dopamine receptor (Homo sapiens) (UniProt P21918); conditions: Compound concentration 10.0 uM
[13] = target: 5-hydroxytryptamine receptor 2A (Homo sapiens, UniProt P28223); assay: GPCRScan assay: inhibition of 5-HT2A; design: radioligand conc. used [nm] 1.2 – 2.4, parental cells HEKT
[14] = target: 5-hydroxytryptamine receptor 1D (Homo sapiens, UniProt P28221); assay: GPCRScan assay: inhibition of 5-HT1D; design: radioligand conc. used [nm] 1.0 – 2.0, parental cells HEKT
[15] = target: 5-hydroxytryptamine receptor 4 (Homo sapiens, UniProt Q13639); assay: GPCRScan assay: inhibition of 5-HT4; design: radioligand conc. used [nm] 0.5 – 2.0, parental cells HEK T
[16] = target: T3, Sigma intracellular receptor 2 (Homo sapiens, UniProt Q5BJF2); conditions: Compound concentration 10.0 uM
[17] = target: 5-hydroxytryptamine receptor 1B (Homo sapiens, UniProt P28222); assay: GPCRScan assay: inhibition of 5-HT1B; design: radioligand conc. used [nm] 0.6 – 1.5, parental cells stable HEK
[18] = target: Sodium-dependent dopamine transporter (Homo sapiens, UniProt Q01959); conditions: Compound concentration 10.0 uM
[19] = target: D(3) dopamine receptor (Homo sapiens) (UniProt P35462); conditions: Compound concentration 10.0 uM
[20] = target: T1, Histamine H2 receptor; assay: GPCRScan assay: inhibition of H2; design: radioligand conc. used [nm] 0.02 – 0.05, parental cells Stable HEK
[21] = organism: Rattus norvegicus; conditions: Compound concentration 10.0 uM
[22] = target: Alpha-2B adrenergic receptor (Homo sapiens, UniProt P18089); assay: GPCRScan assay: inhibition of Alpha2B; design: radioligand conc. used [nm] 1.5 – 2.0, parental cells HEKT
[23] = target: T2, 5-hydroxytryptamine receptor 7; assay: GPCRScan assay: inhibition of 5-HT7A; design: radioligand conc. used [nm] 5.0 – 6.0, parental cells Stable HEK
[24] = target: T3, Sigma intracellular receptor 2; assay: GPCRScan assay: inhibition of Sigma 2; design: radioligand conc. used [nm] 5.0, parental cells HEKT
[25] = target: Mu-type opioid receptor (Homo sapiens) (UniProt P35372); conditions: Compound concentration 10.0 uM
[26] = target: Sigma non-opioid intracellular receptor 1 (Homo sapiens) (UniProt Q99720); conditions: Compound concentration 10.0 uM
[27] = target: Kappa-type opioid receptor (Homo sapiens, UniProt P41145); assay: GPCRScan assay: inhibition of KOR; design: radioligand conc. used [nm] 0.6 – 1.2, parental cells stable HEK
[28] = target: 5-hydroxytryptamine receptor 1A (Homo sapiens) (UniProt P08908); conditions: Compound concentration 10.0 uM

T1 sequence (P25021 whole entry): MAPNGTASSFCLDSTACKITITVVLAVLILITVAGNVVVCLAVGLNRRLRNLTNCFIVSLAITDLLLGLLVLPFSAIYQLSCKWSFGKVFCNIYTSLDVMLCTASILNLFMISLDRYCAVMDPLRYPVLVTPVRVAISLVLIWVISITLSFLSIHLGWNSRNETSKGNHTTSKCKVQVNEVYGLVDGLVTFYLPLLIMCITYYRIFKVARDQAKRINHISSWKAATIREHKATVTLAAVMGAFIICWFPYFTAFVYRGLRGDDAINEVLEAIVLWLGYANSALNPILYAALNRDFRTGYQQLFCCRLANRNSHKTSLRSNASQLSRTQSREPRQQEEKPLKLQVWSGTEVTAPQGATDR
5-hydroxytryptamine receptor 1B, sequence (P28222 whole entry): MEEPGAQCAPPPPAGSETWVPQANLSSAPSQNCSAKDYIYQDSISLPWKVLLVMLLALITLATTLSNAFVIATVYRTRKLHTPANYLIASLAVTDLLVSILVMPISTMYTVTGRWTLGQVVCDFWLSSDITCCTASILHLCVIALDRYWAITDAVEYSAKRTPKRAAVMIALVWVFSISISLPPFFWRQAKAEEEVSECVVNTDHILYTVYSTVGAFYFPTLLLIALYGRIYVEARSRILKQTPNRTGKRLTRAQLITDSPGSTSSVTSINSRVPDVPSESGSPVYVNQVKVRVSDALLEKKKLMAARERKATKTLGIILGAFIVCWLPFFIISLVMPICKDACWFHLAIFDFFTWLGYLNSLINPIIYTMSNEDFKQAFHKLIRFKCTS
T3 sequence (Q5BJF2 whole entry): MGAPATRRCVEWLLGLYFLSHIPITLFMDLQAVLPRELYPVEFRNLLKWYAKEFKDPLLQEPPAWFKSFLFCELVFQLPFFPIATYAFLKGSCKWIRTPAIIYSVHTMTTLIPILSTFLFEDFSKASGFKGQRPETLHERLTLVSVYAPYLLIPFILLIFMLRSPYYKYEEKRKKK
5-hydroxytryptamine receptor 1A, sequence (P08908 whole entry): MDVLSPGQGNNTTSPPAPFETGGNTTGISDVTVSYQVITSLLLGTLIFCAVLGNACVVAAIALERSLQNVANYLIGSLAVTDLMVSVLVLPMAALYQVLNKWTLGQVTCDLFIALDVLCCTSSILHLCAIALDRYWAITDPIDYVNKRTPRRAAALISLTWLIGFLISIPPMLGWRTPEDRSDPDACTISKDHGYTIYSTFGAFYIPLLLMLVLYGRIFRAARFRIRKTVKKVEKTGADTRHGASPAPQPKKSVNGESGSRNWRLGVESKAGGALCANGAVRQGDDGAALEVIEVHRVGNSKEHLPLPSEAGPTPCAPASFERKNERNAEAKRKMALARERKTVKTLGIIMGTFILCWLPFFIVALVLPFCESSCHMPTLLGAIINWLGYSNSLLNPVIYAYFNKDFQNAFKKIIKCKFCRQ
Kappa-type opioid receptor, sequence (P41145 whole entry): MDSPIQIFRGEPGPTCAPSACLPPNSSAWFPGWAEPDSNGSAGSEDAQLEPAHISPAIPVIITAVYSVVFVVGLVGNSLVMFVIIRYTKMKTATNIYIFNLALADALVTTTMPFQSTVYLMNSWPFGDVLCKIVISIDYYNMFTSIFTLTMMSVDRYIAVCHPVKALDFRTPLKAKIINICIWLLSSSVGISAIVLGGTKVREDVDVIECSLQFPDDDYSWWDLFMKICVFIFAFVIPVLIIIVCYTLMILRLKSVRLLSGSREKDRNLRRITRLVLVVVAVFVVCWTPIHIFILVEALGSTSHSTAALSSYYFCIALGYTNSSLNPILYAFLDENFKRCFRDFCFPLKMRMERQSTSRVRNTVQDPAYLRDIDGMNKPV
Histamine H1 receptor, sequence (P35367 whole entry): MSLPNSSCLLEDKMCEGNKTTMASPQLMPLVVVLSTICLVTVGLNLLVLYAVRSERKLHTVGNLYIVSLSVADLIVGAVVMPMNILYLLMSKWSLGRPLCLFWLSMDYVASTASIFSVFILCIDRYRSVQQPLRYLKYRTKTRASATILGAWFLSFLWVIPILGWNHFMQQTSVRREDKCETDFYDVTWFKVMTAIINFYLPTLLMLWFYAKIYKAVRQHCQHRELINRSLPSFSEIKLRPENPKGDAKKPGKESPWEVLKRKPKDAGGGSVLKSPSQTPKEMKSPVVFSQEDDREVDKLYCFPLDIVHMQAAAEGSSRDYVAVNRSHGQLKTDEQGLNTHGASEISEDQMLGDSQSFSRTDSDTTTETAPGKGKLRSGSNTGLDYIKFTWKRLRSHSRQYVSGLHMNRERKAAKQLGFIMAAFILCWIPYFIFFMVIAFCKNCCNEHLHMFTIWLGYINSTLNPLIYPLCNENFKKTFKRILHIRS
T2 sequence (P34969 whole entry): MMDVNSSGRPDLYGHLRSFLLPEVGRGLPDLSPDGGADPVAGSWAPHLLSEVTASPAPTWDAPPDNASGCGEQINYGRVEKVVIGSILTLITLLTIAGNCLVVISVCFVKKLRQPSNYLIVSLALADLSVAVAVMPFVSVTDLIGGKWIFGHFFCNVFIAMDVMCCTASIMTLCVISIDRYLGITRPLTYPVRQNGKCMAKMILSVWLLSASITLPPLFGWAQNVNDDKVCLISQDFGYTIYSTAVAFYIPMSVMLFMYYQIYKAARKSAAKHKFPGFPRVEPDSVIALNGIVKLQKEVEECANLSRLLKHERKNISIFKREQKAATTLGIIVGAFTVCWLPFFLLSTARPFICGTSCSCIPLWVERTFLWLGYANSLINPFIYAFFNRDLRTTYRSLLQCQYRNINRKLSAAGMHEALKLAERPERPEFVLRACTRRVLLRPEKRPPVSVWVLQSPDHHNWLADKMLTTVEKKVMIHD
5-hydroxytryptamine receptor 4, sequence (Q13639 whole entry): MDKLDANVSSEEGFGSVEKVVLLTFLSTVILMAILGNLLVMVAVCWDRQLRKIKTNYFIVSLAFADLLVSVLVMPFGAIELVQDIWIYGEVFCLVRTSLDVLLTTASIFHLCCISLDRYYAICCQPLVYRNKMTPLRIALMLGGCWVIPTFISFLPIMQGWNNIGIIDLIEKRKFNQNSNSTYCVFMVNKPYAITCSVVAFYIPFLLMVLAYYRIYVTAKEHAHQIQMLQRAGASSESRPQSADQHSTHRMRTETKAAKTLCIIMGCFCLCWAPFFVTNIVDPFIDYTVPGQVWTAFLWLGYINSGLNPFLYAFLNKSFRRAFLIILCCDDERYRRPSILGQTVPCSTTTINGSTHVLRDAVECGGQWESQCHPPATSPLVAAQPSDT
5-hydroxytryptamine receptor 1D, sequence (P28221 whole entry): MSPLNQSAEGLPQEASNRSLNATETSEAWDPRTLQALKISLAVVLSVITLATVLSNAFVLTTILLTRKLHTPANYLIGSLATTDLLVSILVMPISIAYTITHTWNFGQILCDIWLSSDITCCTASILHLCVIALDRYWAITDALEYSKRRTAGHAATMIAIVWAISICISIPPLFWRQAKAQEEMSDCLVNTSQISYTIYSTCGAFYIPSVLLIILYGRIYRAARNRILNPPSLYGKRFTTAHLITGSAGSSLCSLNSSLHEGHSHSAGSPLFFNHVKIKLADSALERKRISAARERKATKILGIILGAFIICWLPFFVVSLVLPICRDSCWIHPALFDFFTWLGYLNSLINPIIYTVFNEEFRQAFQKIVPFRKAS
5-hydroxytryptamine receptor 2B, sequence (P41595 whole entry): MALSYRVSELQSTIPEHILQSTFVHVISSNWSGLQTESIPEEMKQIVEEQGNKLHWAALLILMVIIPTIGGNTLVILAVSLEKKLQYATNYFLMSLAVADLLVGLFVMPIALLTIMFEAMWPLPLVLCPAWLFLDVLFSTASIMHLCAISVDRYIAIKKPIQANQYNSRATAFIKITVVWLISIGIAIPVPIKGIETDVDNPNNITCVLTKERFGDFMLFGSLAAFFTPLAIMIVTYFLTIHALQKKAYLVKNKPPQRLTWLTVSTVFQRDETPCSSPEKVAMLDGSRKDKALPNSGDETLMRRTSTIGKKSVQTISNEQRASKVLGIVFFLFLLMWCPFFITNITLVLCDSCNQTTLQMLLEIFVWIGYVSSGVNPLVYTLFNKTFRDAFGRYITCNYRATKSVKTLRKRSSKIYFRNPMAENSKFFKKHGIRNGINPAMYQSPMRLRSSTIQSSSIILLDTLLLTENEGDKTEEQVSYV
Alpha-2B adrenergic receptor, sequence (P18089 whole entry): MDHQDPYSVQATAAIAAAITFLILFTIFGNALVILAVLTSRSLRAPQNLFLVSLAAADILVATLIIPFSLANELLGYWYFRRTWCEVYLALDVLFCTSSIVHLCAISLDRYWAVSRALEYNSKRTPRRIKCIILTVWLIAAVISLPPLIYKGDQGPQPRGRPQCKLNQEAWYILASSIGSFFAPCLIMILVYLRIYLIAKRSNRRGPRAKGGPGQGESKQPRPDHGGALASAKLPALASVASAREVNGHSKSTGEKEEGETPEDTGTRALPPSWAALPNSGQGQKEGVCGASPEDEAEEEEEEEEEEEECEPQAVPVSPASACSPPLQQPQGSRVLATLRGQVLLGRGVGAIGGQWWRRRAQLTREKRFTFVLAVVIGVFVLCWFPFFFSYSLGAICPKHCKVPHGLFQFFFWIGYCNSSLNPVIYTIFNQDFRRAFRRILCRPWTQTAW
Alpha-1B adrenergic receptor (Homo sapiens), sequence (P35368 whole entry): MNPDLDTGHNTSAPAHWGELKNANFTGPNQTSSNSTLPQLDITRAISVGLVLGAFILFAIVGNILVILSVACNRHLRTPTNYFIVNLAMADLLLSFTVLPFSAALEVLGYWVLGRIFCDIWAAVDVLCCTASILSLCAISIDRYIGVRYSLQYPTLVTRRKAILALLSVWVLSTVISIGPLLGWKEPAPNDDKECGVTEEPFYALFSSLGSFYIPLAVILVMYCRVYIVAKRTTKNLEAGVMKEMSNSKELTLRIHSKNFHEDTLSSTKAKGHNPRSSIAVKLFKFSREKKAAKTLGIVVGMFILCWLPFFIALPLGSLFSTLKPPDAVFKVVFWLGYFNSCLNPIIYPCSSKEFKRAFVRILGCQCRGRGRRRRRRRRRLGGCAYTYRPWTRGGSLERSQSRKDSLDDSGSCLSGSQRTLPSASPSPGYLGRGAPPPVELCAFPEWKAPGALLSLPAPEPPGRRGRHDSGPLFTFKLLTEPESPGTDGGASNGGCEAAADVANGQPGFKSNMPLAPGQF

Work on Cc1ccc2nc(CNCCCOc3ccccc3)cc(O)c2c1 [UCSF924] yielded a pKi ([1]; read-out: Ki) of 6.65, a Ki ([1]; read-out: pKi (converted)) of 214 nM and an inhibition [2] of 24.8%. For the same compound, the inhibition [3] was 0.51%, the inhibition [4] was 33.3% and the inhibition [5] was 22.5%. It also gave an inhibition [6] of 60%, an inhibition [7] of 18.8% and a pKi ([8]; read-out: Ki) of 5.34. For the same compound, the Ki ([8]; read-out: pKi (converted)) was 4680 nM, the pKi ([9]; read-out: Ki) was 6.63 and the Ki ([9]; read-out: pKi (converted)) was 224 nM. The inhibition [10] was 8.56%, the inhibition [11] was 16.5% and the inhibition [12] was 16.7%. For the same compound, the pKi [13] was 5.48, the pKi ([14]; read-out: Ki) was 5.49 and the Ki ([14]; read-out: pKi (converted)) was 3140 nM. The pKi [15] was 5.17, the inhibition ([15]; Compound concentration 10.0 uM) was 0% and the inhibition [16] was 50.3%. It also gave a pKi ([17]; read-out: Ki) of 5.47, a Ki ([17]; read-out: pKi (converted)) of 3310 nM and an inhibition [18] of 52.1%. The inhibition [19] was 5.75%, the pKi ([20]; read-out: Ki) was 5.72 and the Ki ([20]; read-out: pKi (converted)) was 1780 nM. The inhibition [21] was 8.58%, the pKi ([22]; read-out: Ki) was 5.52 and the Ki ([22]; read-out: pKi (converted)) was 2570 nM. The pKi [23] was 5.68, the pKi [24] was 5.72 and the inhibition [25] was 39.7%. It also gave an inhibition [26] of 3.82%, a pKi ([27]; read-out: Ki) of 5.64 and a Ki ([27]; read-out: pKi (converted)) of 2190 nM. It also gave an inhibition [28] of 72.1%.

Source: ChEMBL document CHEMBL4507309 (2021)
